# Values of other authors in paper PMC6738313 (The Oncologist, 2019).
# Legend:
# [1] = test system: patients with metastatic renal cell carcinoma
# CYP3A4/5 = details: clinical data
# [2] = test system: first-line poor- or intermediate-risk patients with mRCC; details: CABOSUN
smiles,measurement,setting,value
CNC(=O)c1ccccc1Sc1ccc2c(/C=C/c3ccccn3)n[nH]c2c1 [Axitinib],Progression-free survival (PFS),"[1]; axitinib single agent, first-line therapy, 95% CI 7.2–12.1",10.1 months
same,Objective response rate (ORR),"[1]; single-agent axitinib, first-line mRCC, phase III trial versus sorafenib",32%
same,Metabolic pathway,CYP3A4/5,primarily metabolized by CYP3A4/5
COc1cc2nccc(Oc3ccc(NC(=O)C4(C(=O)Nc5ccc(F)cc5)CC4)cc3)c2cc1OC [cabozantinib],Estimated progression-free survival (PFS),[2]; 95% CI 6.2–8.8,8.2 months
same,Objective response rate (ORR),[2]; first-line poor- or intermediate-risk patients with mRCC,46%
"C[C@@H](Oc1cc(-c2cnn(C3CCNCC3)c2)cnc1N)c1c(Cl)ccc(F)c1Cl [crizotinib, Crizotinib]",CYP3A4/5 inhibition (classification),CYP3A4/5,moderate time‐dependent CYP3A4/5 inhibitor
